From patent US20040102468A1 (Gruenenthal GmbH, priority 2001, published 2004)

What was measured:
rat = rat model of rhythmic bladder contractions; cited from earlier work
[1] = tested on: female Sprague-Dawley rats with oxyhaemoglobin-induced bladder overactivity; test: Cystometry on conscious damaged rats (oxyhaemoglobin-induced bladder overactivity, urgency incontinence model); assay type: in vivo, rat; details: OxyHb 2.5 × 10^−4 M alone

COc1cccc(C2(O)CCCCC2CN(C)C)c1 (stereo not shown) [tramadol]
effect on bladder function (rat): positive effect on bladder function

oxyhaemoglobin [OxyHb]
BC bladder capacity, after (a) ([1]; n=5): a: 0.65 ± 0.06 ml | BC bladder capacity, change (dif.) compared with the pre-value ([1]; n=5): dif.: −29.3% | ICI intercontraction interval, after (a) ([1]; n=5): a: 3.33 ± 0.18 min | ICI intercontraction interval, change (dif.) compared with the pre-value ([1]; n=5): dif.: −32.9% | MP micturition pressure, after (a) ([1]; n=5): a: 97 ± 5 cm H2O | MP micturition pressure, change (dif.) compared with the pre-value ([1]; n=5): dif.: +64.4% | TP threshold pressure, after (a) ([1]; n=5): a: 9.84 ± 1.56 cm H2O | TP threshold pressure, change (dif.) compared with the pre-value ([1]; n=5): dif.: +12.8% | BC bladder capacity, before (b) ([1]; n=5, pre-value): b: 0.92 ± 0.10 ml | ICI intercontraction interval, before (b) ([1]; n=5, pre-value): b: 4.96 ± 0.33 min | MP micturition pressure, before (b) ([1]; n=5, pre-value): b: 59 ± 8 cm H2O | TP threshold pressure, before (b) ([1]; n=5, pre-value): b: 8.72 ± 1.31 cm H2O
